From patent publication US6713473B1, “Tricyclic compounds” (Meiji Seika Kaisha, Ltd., priority 1999, dated 2004) come the findings set out here.

The first test addresses T1, human Y5 receptor (Homo sapiens, UniProt Q15761).
T1 sequence (Q15761 1-445): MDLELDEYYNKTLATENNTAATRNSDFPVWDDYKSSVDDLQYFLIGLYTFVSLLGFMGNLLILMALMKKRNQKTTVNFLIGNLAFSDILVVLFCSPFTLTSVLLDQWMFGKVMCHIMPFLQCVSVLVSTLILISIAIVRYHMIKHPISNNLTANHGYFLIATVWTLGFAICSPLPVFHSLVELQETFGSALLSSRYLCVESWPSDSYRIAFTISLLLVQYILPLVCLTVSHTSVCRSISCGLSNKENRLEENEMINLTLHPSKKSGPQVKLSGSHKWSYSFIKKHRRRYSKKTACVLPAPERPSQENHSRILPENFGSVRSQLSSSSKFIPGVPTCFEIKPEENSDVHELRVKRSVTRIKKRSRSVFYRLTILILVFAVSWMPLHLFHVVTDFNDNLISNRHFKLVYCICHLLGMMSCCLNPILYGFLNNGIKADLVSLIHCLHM
Nature of the test: Y5 receptor binding inhibition test.
Conditions: not given
`O=C(Nc1ccc2c(c1)c1c(n2CCO)CCCC1)N1CCOCC1` [Compound 8-9]: the “% Inhibition ratio (10 μM)” value came to 101%.

In the case of `CC(C)n1c2c(c3cc(NC(=O)NCCO)ccc31)CCCC2` [Compound 4-2], the “% Inhibition ratio (10 μM)” value is reported as 89%.

Consider `CC(C)n1c2c(c3cc(NC(=O)N(C)CCO)ccc31)CCCC2` [Compound 5-4], for which the “% Inhibition ratio (10 μM)” value is given as 101%.

Regarding `CC(C)n1c2c(c3cc(NC(=O)N(CCO)CCO)ccc31)CCCC2` [Compound 6-2], the “% Inhibition ratio (10 μM)” value is 86%.

For `CCCn1c2c(c3cc(NC(=O)N4CCOCC4)ccc31)CCCC2` [Compound 8-3], the “% Inhibition ratio (10 μM)” value is on record as 101%.

The same test, now with this note: 2 h, read-out: % Inhibition ratio (10 μM).
Turning to `CCn1c2c(c3cc(C(=O)NCCOCCn4nnnc4N)ccc31)CCCC2` [Compound 2-4], the inhibition at 10 µM worked out at 85%.

Take `CCn1c2ccccc2c2cc(NC(=O)CCCCCNS(=O)(=O)c3cccc4ccccc34)ccc21` [Compound 1-2]: the inhibition at 10 µM turned out to be 91%.

For `CC(C)S(=O)(=O)NCCCCCNC(=O)c1ccc2c(c1)c1c(n2CCOCCO)CCCC1` [Compound 1-60], the inhibition at 10 µM stood at 86%.

For the compound `CCn1c2ccccc2c2cc(C(=O)NCCCCCNS(=O)(=O)c3cccc4c(N(C)C)cccc34)ccc21` [Compound 1-17], the inhibition at 10 µM came to 93%.

Turning to `CCn1c2ccccc2c2cc(C(=O)NCCCCCNC(=O)C(C)C)ccc21` [Compound 1-18], the inhibition at 10 µM came out at 88%.

In the case of `CCn1c2ccccc2c2cc(NC(=O)CCCCNS(=O)(=O)c3cccc4ccccc34)ccc21` [Compound 1-1], the inhibition at 10 µM is 95%.

For `CCn1c2ccccc2c2cc(C(=O)NC3CCC(CNS(=O)(=O)c4cccc5ccccc45)CC3)ccc21` (centres unmarked) [Compound 1-35], the inhibition at 10 µM was 75%.

Consider `CCn1c2c(c3cc(C(=O)NCCCCCNS(=O)(=O)c4cccc5ccccc45)ccc31)CCCC2` [Compound 1-45], for which the inhibition at 10 µM was found to be 87%.

Take `CCn1c2c(c3cc(C(=O)NCCOCCSc4ncn[nH]4)ccc31)CCCC2` [Compound 2-1]: the inhibition at 10 µM was 71%.

In the case of `CCn1c2ccccc2c2cc(C(=O)NCCCCNS(=O)(=O)c3cccc4ccccc34)ccc21` [Compound 1-31], the inhibition at 10 µM amounted to 94%.

With `CCCCn1c2ccccc2c2cc(C(=O)NCCCCCNS(=O)(=O)c3cccc4ccccc34)ccc21` [Compound 1-48], the inhibition at 10 µM is 96%.

On to `CCn1c2ccccc2c2cc(C(=O)NCCCCCNC(=O)c3ccc4[nH]nnc4c3)ccc21` [Compound 1-26], for which the inhibition at 10 µM came out at 82%.

Consider `CC(C)n1c2ccccc2c2cc(C(=O)NCCCCCNS(=O)(=O)c3cccc4ccccc34)ccc21` [Compound 1-47], for which the inhibition at 10 µM was 100%.

Turning to `CCn1c2c(c3cc(C(=O)NCCOCCNS(C)(=O)=O)ccc31)CCCC2` [Compound 1-51], the inhibition at 10 µM was 80%.

As for `CCn1c2ccccc2c2cc(C(=O)NC(C)CCCCNS(=O)(=O)c3cccc4ccccc34)ccc21` (centres unmarked) [Compound 1-34], the inhibition at 10 µM is 88%.

Turning to `CCn1c2ccccc2c2cc(C(=O)NCCCCCN3C(=O)c4ccccc4C3=O)ccc21` [Compound 1-56], the inhibition at 10 µM was 94%.

For `CCn1c2ccccc2c2cc(C(=O)NCCCCCNC(=O)c3cccc4ccccc34)ccc21` [Compound 1-22], the inhibition at 10 µM is 89%.

For the compound `CCn1c2ccccc2c2cc(C(=O)NCCSCCNS(=O)(=O)c3cccc4ccccc34)ccc21` [Compound 1-27], the inhibition at 10 µM came out at 96%.

Regarding `CCn1c2ccccc2c2cc(C(=O)NCCCCCNC(=O)c3cccnc3)ccc21` [Compound 1-23], the inhibition at 10 µM was found to be 77%.

Regarding `CCn1c2ccccc2c2cc(NC(=O)CCCCCCCNS(=O)(=O)c3cccc4ccccc34)ccc21` [Compound 1-3], the inhibition at 10 µM amounted to 78%.

In the case of `CCn1c2c(c3cc(NC(C)=O)ccc31)CCCCC2` [Compound 3-2], the inhibition at 10 µM turned out to be 94%.

Regarding `CCOc1c(C(=O)NCCCCCNS(=O)(=O)c2cccc3ccccc23)ccc2c1c1c(n2CC)CCCC1` [Compound 1-40], the inhibition at 10 µM is 91%.

With `CCn1c2ccccc2c2cc(C(=O)NCCNCCNS(=O)(=O)c3cccc4ccccc34)ccc21` [Compound 1-29], the inhibition at 10 µM worked out at 89%.

For the compound `CCn1c2ccccc2c2cc(NC(=O)CCCCCNS(=O)(=O)c3cccc4cccnc34)ccc21` [Compound 1-7], the inhibition at 10 µM turned out to be 100%.

Take `CCn1c2c(c3c(O)c(C(=O)NCCCCCNS(=O)(=O)c4cccc5ccccc45)ccc31)CCCC2` [Compound 1-44]: the inhibition at 10 µM was determined as 69%.

`CCn1c2ccccc2c2cc(C(=O)NCCN(C)CCNS(=O)(=O)c3cccc4ccccc34)ccc21` [Compound 1-30]: the inhibition at 10 µM turned out to be 99%.

`CCCCCCCCS(=O)(=O)NCCCCCNC(=O)c1ccc2c(c1)c1ccccc1n2CC` [Compound 1-12]: the inhibition at 10 µM was determined as 77%.

Consider `CCn1c2c(c3cc(NC(C)=O)ccc31)CCCC2` [Compound 3-1], for which the inhibition at 10 µM was determined as 88%.

As to `Cn1c2ccccc2c2cc(C(=O)NCCCCCNS(=O)(=O)c3cccc4ccccc34)ccc21` [Compound 1-46], the inhibition at 10 µM was 102%.

In the case of `CCn1c2c(c3cc(C(=O)NCCCCCNS(=O)(=O)c4cccc5ccccc45)c(O)cc31)CCCC2` [Compound 1-43], the inhibition at 10 µM turned out to be 54%.

With `COCCn1c2c(c3cc(C(=O)NCCOCCNS(=O)(=O)c4cccnc4)ccc31)CCCC2` [Compound 1-58], the inhibition at 10 µM was 66%.

`CCn1c2ccccc2c2cc(C(=O)NCCOCCNS(=O)(=O)c3cccc4ccccc34)ccc21` [Compound 1-28]: the inhibition at 10 µM was 100%.

For `CC(C)S(=O)(=O)NCCCCCNC(=O)c1ccc2c(c1)c1c(n2CC(N)=O)CCCC1` [Compound 1-61], the inhibition at 10 µM stood at 77%.

With `CCn1c2ccccc2c2cc(NC(=O)CCCCNS(=O)(=O)c3ccc4ccccc4c3)ccc21` [Compound 1-6], the inhibition at 10 µM is 93%.

Regarding `CCn1c2ccccc2c2cc(NS(C)(=O)=O)ccc21` [Compound 3-8], the inhibition at 10 µM is 73%.

Staying with this test, now noted: test compound 10 μM; 3H-NPY; membrane of insect cells expressing human Y5 receptor; 4° C., 2 hours; relative to Y5 specific binding in solvent group.
`CC(C)n1c2c(c3cc(NC(=O)N(C)Cc4ccncc4)ccc31)CCCC2` [Compound 5-17]: the “% Inhibition ratio (10 μM)” value is reported as 100%.

For `CC(C)n1c2c(c3cc(NC(=O)N(C)CCSc4ncc[nH]4)ccc31)CCCC2` [Compound 5-25], the “% Inhibition ratio (10 μM)” value is reported as 101%.

On to `CC(C)n1c2c(c3cc(NC(=O)N4CCC[C@H]4CO)ccc31)CCCC2` [Compound 7-5], for which the “% Inhibition ratio (10 μM)” value was 100%.

As to `CC(C)n1c2c(c3cc(NC(=O)N(C)CCN4CCN(C)CC4)ccc31)CCCC2` [Compound 5-15], the “% Inhibition ratio (10 μM)” value was 87%.

As to `CC(C)n1c2c(c3cc(NC(=O)N(C)CCCSc4nnc[nH]4)ccc31)CCCC2` [Compound 5-24], the “% Inhibition ratio (10 μM)” value was determined as 95%.

Consider `CC(C)n1c2c(c3cc(NC(=O)N(C)CCCN(C)C)ccc31)CCCC2` [Compound 5-5], for which the “% Inhibition ratio (10 μM)” value amounted to 82%.

As for `CC(C)n1c2c(c3cc(NC(=O)N4CCN(c5ccccn5)CC4)ccc31)CCCC2` [Compound 7-20], the “% Inhibition ratio (10 μM)” value worked out at 89%.

In the case of `CC(C)n1c2c(c3cc(NC(=O)N4CCCCC4CO)ccc31)CCCC2` (centres unmarked) [Compound 7-9], the “% Inhibition ratio (10 μM)” value worked out at 91%.

On to `CC(C)n1c2c(c3cc(NC(=O)N4CCN(c5ncccn5)CC4)ccc31)CCCC2` [Compound 7-21], for which the “% Inhibition ratio (10 μM)” value is 80%.

On to `CC(C)n1c2c(c3cc(NC(=O)N4CCC[C@@H]4CO)ccc31)CCCC2` [Compound 7-6], for which the “% Inhibition ratio (10 μM)” value worked out at 88%.

Take `CC(C)n1c2c(c3cc(NC(=O)N4CCCC(CO)C4)ccc31)CCCC2` (centres unmarked) [Compound 7-10]: the “% Inhibition ratio (10 μM)” value is 97%.

Regarding `CC(C)n1c2c(c3cc(NC(=O)N(C)CCCCO)ccc31)CCCC2` [Compound 5-6], the “% Inhibition ratio (10 μM)” value is on record as 89%.

As to `COCCN(CCOC)C(=O)Nc1ccc2c(c1)c1c(n2C(C)C)CCCC1` [Compound 6-3], the “% Inhibition ratio (10 μM)” value is on record as 102%.

Turning to `CC(C)n1c2c(c3cc(NC(=O)N(C)CCC#N)ccc31)CCCC2` [Compound 5-9], the “% Inhibition ratio (10 μM)” value is on record as 98%.

Take `CC(C)n1c2c(c3cc(NC(=O)N4CCNCC4)ccc31)CCCC2` [Compound 7-18]: the “% Inhibition ratio (10 μM)” value is 92%.

As for `CC(C)n1c2c(c3cc(NC(=O)N(C)CCOCCO)ccc31)CCCC2` [Compound 5-10], the “% Inhibition ratio (10 μM)” value is recorded as 104%.

For the compound `CC(C)n1c2c(c3cc(NC(=O)N(C)CCc4ccncc4)ccc31)CCCC2` [Compound 5-20], the “% Inhibition ratio (10 μM)” value is 103%.

For the compound `CC(C)n1c2c(c3cc(NC(=O)N4CCCCC4)ccc31)CCCC2` [Compound 7-2], the “% Inhibition ratio (10 μM)” value amounted to 99%.

Turning to `CC(C)n1c2c(c3cc(NC(=O)N(C)C4CCCCC4)ccc31)CCCC2` [Compound 5-11], the “% Inhibition ratio (10 μM)” value worked out at 97%.

Regarding `CC(C)n1c2c(c3cc(NC(=O)N4CCCCCC4)ccc31)CCCC2` [Compound 7-3], the “% Inhibition ratio (10 μM)” value stood at 98%.

Turning to `CC(C)n1c2c(c3cc(NC(=O)N(C)CCCn4ccnc4)ccc31)CCCC2` [Compound 5-22], the “% Inhibition ratio (10 μM)” value was 100%.

With `CC(C)n1c2c(c3cc(NC(=O)N4CCOCC4)ccc31)CCCCC2` [Compound 11-4], the “% Inhibition ratio (10 μM)” value was 97%.

As to `CC(=O)n1c2c(c3cc(NC(=O)N4CCOCC4)ccc31)CCCC2` [Compound 8-11], the “% Inhibition ratio (10 μM)” value is given as 102%.

`CC(C)n1c2c(c3cc(NC(=O)N(C)CCc4cccnc4)ccc31)CCCC2` [Compound 5-19]: the “% Inhibition ratio (10 μM)” value was 100%.

Turning to `CC(C)n1c2c(c3cc(NC(=O)N4CCOCC4)ccc31)CCCC2` [Compound 8-4], the “% Inhibition ratio (10 μM)” value amounted to 98%.
